Key:
[1] = xn = mol fraction of the nth substance listed; settings: 101 kPa, Liquid, Vibrating tube method
[2] = refractive index (Na D-line) (dimensionless); xn = mol fraction of the nth substance listed; settings: 101 kPa, Liquid, Standard Abbe refractometry

C1COCCO1 [1,4-dioxane] + CCCCn1cc[n+](C)c1.F[B-](F)(F)F
Settings	mass density, [1] [kg/m3]	refractive index, [2]
293.15 K, x2 = 0	1033.57	–
293.15 K, x2 = 0.2559	1118.75	–
293.15 K, x2 = 0.3956	1146.31	–
293.15 K, x2 = 0.4988	1161.37	–
293.15 K, x2 = 0.6	1173.1	–
293.15 K, x2 = 0.7021	1183.04	–
293.15 K, x2 = 0.8993	1198.09	–
298.15 K, x2 = 0	1027.92	1.4205
298.15 K, x2 = 0.2559	1114.31	1.4253
298.15 K, x2 = 0.3956	1142.23	1.4258
298.15 K, x2 = 0.4988	1157.44	1.4256
298.15 K, x2 = 0.6	1169.26	1.4249
298.15 K, x2 = 0.7021	1179.3	1.4241
298.15 K, x2 = 0.8993	1194.53	1.4222
303.15 K, x2 = 0	1022.27	1.4171
303.15 K, x2 = 0.2559	1109.87	1.4236
303.15 K, x2 = 0.3956	1138.14	1.4244
303.15 K, x2 = 0.4988	1153.51	1.4242
303.15 K, x2 = 0.6	1165.45	1.4235
303.15 K, x2 = 0.7021	1175.57	1.4225
303.15 K, x2 = 0.8993	1190.95	1.4207
313.15 K, x2 = 0	1010.91	1.4112
313.15 K, x2 = 0.2559	1101.06	1.4196
313.15 K, x2 = 0.3956	1130.01	1.421
313.15 K, x2 = 0.4988	1145.69	1.4211
313.15 K, x2 = 0.6	1157.84	1.4206
313.15 K, x2 = 0.7021	1168.15	1.4199
313.15 K, x2 = 0.8993	1183.8	1.4183
323.15 K, x2 = 0	999.49	1.4063
323.15 K, x2 = 0.2559	1092.28	1.4161
323.15 K, x2 = 0.3956	1121.91	1.4179
323.15 K, x2 = 0.4988	1137.92	1.4181
323.15 K, x2 = 0.6	1150.29	1.4177
323.15 K, x2 = 0.7021	1160.77	1.4169
323.15 K, x2 = 0.8993	1176.68	1.4155
333.15 K, x2 = 0	987.97	–
333.15 K, x2 = 0.2559	1083.47	–
333.15 K, x2 = 0.3956	1113.85	–
333.15 K, x2 = 0.4988	1130.18	–
333.15 K, x2 = 0.6	1142.79	–
333.15 K, x2 = 0.7021	1153.44	–
333.15 K, x2 = 0.8993	1169.6	–
343.15 K, x2 = 0	976.37	–
343.15 K, x2 = 0.2559	1074.65	–
343.15 K, x2 = 0.3956	1105.8	–
343.15 K, x2 = 0.4988	1122.47	–
343.15 K, x2 = 0.6	1135.31	–
343.15 K, x2 = 0.7021	1146.14	–
343.15 K, x2 = 0.8993	1162.53	–
353.15 K, x2 = 0	964.63	–
353.15 K, x2 = 0.2559	1065.8	–
353.15 K, x2 = 0.3956	1097.77	–
353.15 K, x2 = 0.4988	1114.8	–
353.15 K, x2 = 0.6	1127.87	–
353.15 K, x2 = 0.7021	1138.89	–
353.15 K, x2 = 0.8993	1155.57	–

CCn1cc[n+](C)c1.F[B-](F)(F)F [1-ethyl-3-methylimidazolium tetrafluoroborate] + C1COCCO1
Settings	mass density, [1] [kg/m3]	refractive index, [2]
293.15 K, x1 = 0.3292	1171.62	–
293.15 K, x1 = 0.4547	1203.47	–
293.15 K, x1 = 0.4923	1211.84	–
293.15 K, x1 = 0.6409	1240.74	–
293.15 K, x1 = 0.6838	1246.89	–
293.15 K, x1 = 0.7851	1263.5	–
293.15 K, x1 = 0.8336	1270.18	–
293.15 K, x1 = 1	1290.63	–
298.15 K, x1 = 0.3292	1167.26	1.4214
298.15 K, x1 = 0.4547	1199.31	1.4197
298.15 K, x1 = 0.4923	1207.73	1.4191
298.15 K, x1 = 0.6409	1236.77	1.4165
298.15 K, x1 = 0.6838	1242.94	1.4157
298.15 K, x1 = 0.7851	1259.61	1.414
298.15 K, x1 = 0.8336	1266.32	1.4132
298.15 K, x1 = 1	1286.82	1.4111
303.15 K, x1 = 0.3292	1163	1.4195
303.15 K, x1 = 0.4547	1195.16	1.4181
303.15 K, x1 = 0.4923	1203.63	1.4176
303.15 K, x1 = 0.6409	1232.79	1.415
303.15 K, x1 = 0.6838	1238.89	1.4143
303.15 K, x1 = 0.7851	1255.72	1.4125
303.15 K, x1 = 0.8336	1262.45	1.4118
303.15 K, x1 = 1	1283.02	1.41
313.15 K, x1 = 0.3292	1154.24	1.4163
313.15 K, x1 = 0.4547	1186.92	1.4154
313.15 K, x1 = 0.4923	1195.48	1.4149
313.15 K, x1 = 0.6409	1224.92	1.4126
313.15 K, x1 = 0.6838	1231.17	1.4118
313.15 K, x1 = 0.7851	1248.01	1.41
313.15 K, x1 = 0.8336	1254.79	1.4092
313.15 K, x1 = 1	1275.45	1.4073
323.15 K, x1 = 0.3292	1145.14	1.4129
323.15 K, x1 = 0.4547	1178.43	1.4123
323.15 K, x1 = 0.4923	1187.38	1.4119
323.15 K, x1 = 0.6409	1217.1	1.4097
323.15 K, x1 = 0.6838	1223.4	1.409
323.15 K, x1 = 0.7851	1240.36	1.4074
323.15 K, x1 = 0.8336	1247.18	1.4067
323.15 K, x1 = 1	1267.97	1.4051
333.15 K, x1 = 0.3292	1136.98	–
333.15 K, x1 = 0.4547	1170.56	–
333.15 K, x1 = 0.4923	1179.33	–
333.15 K, x1 = 0.6409	1209.33	–
333.15 K, x1 = 0.6838	1215.68	–
333.15 K, x1 = 0.7851	1232.77	–
333.15 K, x1 = 0.8336	1239.64	–
333.15 K, x1 = 1	1260.55	–
343.15 K, x1 = 0.3292	1128.37	–
343.15 K, x1 = 0.4547	1162.44	–
343.15 K, x1 = 0.4923	1171.31	–
343.15 K, x1 = 0.6409	1201.62	–
343.15 K, x1 = 0.6838	1208.02	–
343.15 K, x1 = 0.7851	1225.24	–
343.15 K, x1 = 0.8336	1232.15	–
343.15 K, x1 = 1	1253.18	–
353.15 K, x1 = 0.3292	1120.41	–
353.15 K, x1 = 0.4547	1154.35	–
353.15 K, x1 = 0.4923	1163.32	–
353.15 K, x1 = 0.6409	1193.95	–
353.15 K, x1 = 0.6838	1200.41	–
353.15 K, x1 = 0.7851	1217.75	–
353.15 K, x1 = 0.8336	1225.41	–
353.15 K, x1 = 1	1245.87	–
